According to US8309546B2, “Morpholinopurine derivatives” (Daiichi Sankyo Company, Limited, priority 2008, dated 2012):

How the values were obtained:
PI3Kα = PI3Kα (Homo sapiens, UniProt P42336); assay: PI3K kinase activity inhibition assay; assay type: biochemical; conditions: Kinase-Glo Plus ATP detection, read-out: IC50 against PI3K
Protocol: PI3Kα kinase activity was determined in the presence and absence of a test compound. The test compound was dissolved in DMSO and diluted serially with an ATP solution (30 μm ATP, 50 mM HEPES, pH 7.4, 50 mM NaCl, 0.05% CHAPS, 10 mM MgCl2, and 5 mM dithiothreitol [DTT]). First, 7 μl each of the serially diluted test compound solutions was added to each well of a black 384-well plate. Subsequently, 7 μl of a phosphatidylinositol 4,5-bisphosphate (PIP2) solution (45 μm PIP2, 50 mM HEPES, pH 7.4, 50 mM NaCl, 0.05% CHAPS, 10 mM MgCl2, and 5 mM DTT) was added to each well of the 384-well plate. Finally, 7 μl of a solution containing PI3Kα (50 nM PI3Kα, 50 mM HEPES, pH 7.4, 50 mM NaCl, 0.05% CHAPS, 10 mM MgCl2, and 5 mM DTT) was added to each well of the 384-well plate to initiate a reaction. The mixture was reacted at room temperature for 2 hours and then 21 μl of the Kinase-Glo Plusreagent (Promega) was, added to each well of the 384-well plate to terminate the reaction. After the termination of the reaction, the solution was left standing for 15 minutes and then luminescence was measured with ARVO (PerkinElmer Co., Ltd.) to detect ATP remaining in the reaction solution.
The amount of ATP consumed in the reaction was obtained for each well and used as an indicator of PI3Kαkinase activity. The PI3Kα kinase activity in wells not containing the test compound was calculated by the following formula (1). Furthermore, the PI3Kα kinase activity in wells containing the test compound was calculated by the following formula (2). The PI3Kα inhibitory activity (%) of the test compound was calculated by the following formula (3). PI3Kα kinase activity in wells not containing the test compound=B−C (1) PI3Kα kinase activity in wells containing the test compound=B−P (2) PI3Kα inhibitory activity (%) of test compound=100−100×[(B−P)/(B−C)] (3) B: Measured value in wells not containing PI3Kα or the test compound C: Measured value in wells containing PI3Kα and not containing the test compound P: Measured value in wells containing PI3Kα and the test compound
Furthermore, an optimal curve was calculated with Graph Pad Prism 4 using concentrations of the serially diluted test compound solutions and PI3Kα inhibitory activity (%) at each concentration to obtain the concentration showing 50% inhibition as the IC50 value of PI3Kα inhibitory activity.

[1] = molecular target: T1, human mTOR (His-tagged mTOR (1362C)) (Homo sapiens, UniProt P42345); assay: mTOR kinase activity inhibition assay; assay type: biochemical; conditions: HTRF, read-out: IC50 against mTOR
T1 construct: the 1362 to 2549 amino acid portion on the C terminus side of human mTOR; His tag (N); made in house
T1 sequence (P42345 1362-2549): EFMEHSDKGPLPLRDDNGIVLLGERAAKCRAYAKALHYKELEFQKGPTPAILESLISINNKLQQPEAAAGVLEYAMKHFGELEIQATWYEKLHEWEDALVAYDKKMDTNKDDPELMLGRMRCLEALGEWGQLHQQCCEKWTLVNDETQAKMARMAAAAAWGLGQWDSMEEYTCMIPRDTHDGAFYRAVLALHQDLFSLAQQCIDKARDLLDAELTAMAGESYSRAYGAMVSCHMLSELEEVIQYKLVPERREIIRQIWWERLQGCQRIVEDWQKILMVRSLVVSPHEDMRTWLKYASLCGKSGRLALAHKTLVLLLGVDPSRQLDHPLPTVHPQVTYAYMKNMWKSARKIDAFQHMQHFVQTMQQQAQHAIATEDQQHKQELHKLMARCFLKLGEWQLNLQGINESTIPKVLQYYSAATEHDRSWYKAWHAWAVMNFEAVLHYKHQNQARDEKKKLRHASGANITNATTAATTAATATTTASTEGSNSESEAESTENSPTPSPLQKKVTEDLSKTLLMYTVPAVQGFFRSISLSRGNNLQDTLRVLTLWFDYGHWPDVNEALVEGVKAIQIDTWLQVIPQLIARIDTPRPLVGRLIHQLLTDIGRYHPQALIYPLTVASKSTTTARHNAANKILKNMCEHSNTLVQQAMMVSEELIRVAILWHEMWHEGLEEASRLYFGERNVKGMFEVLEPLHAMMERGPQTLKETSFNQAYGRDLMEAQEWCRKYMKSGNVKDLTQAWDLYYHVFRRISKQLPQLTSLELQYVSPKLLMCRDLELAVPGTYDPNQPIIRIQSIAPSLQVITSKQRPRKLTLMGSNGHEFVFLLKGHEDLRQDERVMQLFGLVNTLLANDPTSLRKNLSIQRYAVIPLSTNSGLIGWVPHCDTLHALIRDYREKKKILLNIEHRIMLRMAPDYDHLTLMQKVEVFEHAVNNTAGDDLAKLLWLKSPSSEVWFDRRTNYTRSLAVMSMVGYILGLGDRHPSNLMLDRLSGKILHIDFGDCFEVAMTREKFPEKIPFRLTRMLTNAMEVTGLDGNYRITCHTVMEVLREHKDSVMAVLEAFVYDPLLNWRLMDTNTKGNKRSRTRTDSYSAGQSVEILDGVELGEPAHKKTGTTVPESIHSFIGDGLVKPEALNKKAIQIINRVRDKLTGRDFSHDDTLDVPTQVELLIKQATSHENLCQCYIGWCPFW
Protocol: The mTOR kinase activity was determined in the presence and absence of a test compound. A substrate peptide is phosphorylated by mTOR kinase activity. A complex of streptavidin-XL665 and anti-phosphorylated S6K (Thr389) antibody-anti-mouse IgG-cryptate binds to this phosphorylated peptide. At this time, irradiation of excitation light induces transfer of fluorescence resonance energy from the excited cryptate to XL665, emitting fluorescence at 665 nm. Utilizing this principle, mTOR kinase activity was detected. When the mTOR inhibitor is present, phosphorylation of a substrate peptide is inhibited, and the biding of the above-mentioned complex to the substrate peptide is inhibited.
A His tag was introduced into the N terminus end of the 1362 to 2549 amino acid portion on the C terminus side of human mTOR, and a cell line was prepared, so that His-tagged mTOR should be constantly expressed in a HEK293 cell. A cell lysate was prepared from this HEK293 cell which constantly expressed His-tagged mTOR (1362C), and a crude product of His-tagged mTOR (1362C) was obtained by a usual method utilizing His tag.
Subsequently, an mTOR enzyme solution was prepared which contained the above-mentioned His-tagged mTOR (1362C) enzyme and 8 μg/ml biotinylated peptide (Biotin-Ahx-[…]-amide [Sigma]), as well as 50 mM HEPES (pH 7.5), 20 mM MnCl2, 1 mg/ml BSA, a suitable amount of protease inhibitor cocktail (Complete EDTA free, Roche Ltd.), 100 ng/ml calyculin A, and 4 μg/ml cantharidin as other components.
The test compound was dissolved in dimethyl sulfoxide (DMSO) and serially diluted with 20 μm ATP solution (50 mM HEPES (pH 7.5), 20 μM ATP) to obtain concentrations required for the assay. 5 μl of this compound solution was added to each well of a 384-well small volume white plate manufactured by Greiner Bio-One Co., Ltd.
5 μl of the mTOR enzyme solution was added to the above-mentioned well containing the test compound and the resulting mixture was left standing for 3 hours room temperature to proceed an enzymatic reaction.
The same procedure was performed using a solution obtained by dissolving DMSO in 20 μM ATP solution as a positive control and a solution obtained by dissolving DMSO in 50 mM HEPES buffer (pH 7.5) as a negative control.
After the enzymatic reaction, 5 μl each of an europium solution (a solution obtained by dissolving anti-mouse IgG-cryptate [SCETI Medical Labo K.K.] and anti-phosphorylation S6K [Thr389] antibody [Cell Signaling Technology Inc.] in 50 mM HEPES [pH 7.5], 100 mM EDTA, and 1.5 mg/ml BSA) and an XL665 solution (a solution obtained by dissolving Streptavidin-XL 665 [SCETI Medical Labo K.K.] in 50 mM HEPES [pH 7.5], 100 mM EDTA, 0.8 M KF, and 1.5 mg/ml BSA) were added in this order and mixed and the resulting mixture was left standing overnight at 4° C. On the following day, the mixture was returned to room temperature and then irradiated with 337-nm excitation light and fluorescence at 620 and 665 nm was measured with RUBYstar (BMG LABTECH JAPAN Ltd.).
mTOR inhibitory activity (%) was calculated using the ratio calculated from the measured values as an indicator of enzyme activity. Here, the ratio was calculated by the following formula (1). Ratio=10,000×fluorescence at 665 nm/fluorescence at 620 nm (1)
mTOR enzyme inhibitory activity (%) was calculated by the following formula (2). mTOR enzyme inhibitory activity (%)=100×[(P−S)/(P−N)] (2) P: Ratio in positive control well N: Ratio in negative control well S: Ratio in well containing the test compound
Furthermore, an optimal curve was created using the concentrations of the serially diluted test compound solutions and mTOR enzyme inhibitory activity (%) at each concentration to obtain the concentration showing 50% inhibition as the IC50 value of mTOR enzyme inhibitory activity.

[2] = system: human endometrial cancer cell strain AN3CA; assay: Cell growth inhibition test (MTT), AN3CA; assay type: cell-based; conditions: AN3-CA, 72 h, 3 days culture, read-out: concentration exhibiting anti-cell effect (GI50)
Protocol: (§1) After a cultured cancer cell strain was treated with a test compound for a predetermined period, a cell growth inhibition test was performed by measuring the living cell count by the 3-(4,5-dimethylthiazol-2-yl)-2,5-diphenyltetrazoliumbromide (MTT) method.
(§2) Human endometrial cancer cell strain AN3CA, human ovary cancer cell strain IGROV1, and human colon cancer cell strain HT29 were seeded in a 96-well plate at 5000, 1000, and 5000 cells, respectively, per well. On the following day of seeding, a test compound having a predetermined concentration was added and the culture was continued at 37° C. in 5% CO2 for 3 days. On the final day of culture, an MTT reaction solution was added and the resulting mixture was reacted for 4 hours to form formazan by dehydrogenases contained in living cells. Subsequently, the culture broth was removed, DMSO was added to solubilize formazan, and the amount of produced formazan was determined by measuring absorbance at 540 nm using a microplate reader.
(§3) Since correlations of the amount of produced formazan and the living cell count had been confirmed, the cell growth rate was calculated by the following formula. Cell growth rate (T/C %) after addition of test compound=100×[(B−C)/(A−C)] A: Absorbance of well not containing test compound (final culture day) B: Absorbance of well containing test compound (final culture day) C: Absorbance of well immediately before addition of test compound (following day of cell seeding)
(§4) Furthermore, the cell growth rate at each concentration of serially diluted test compound solutions was obtained, and the concentration of the test compound resulting in a 50% growth rate was obtained as the GI50 value from two concentrations including 50% therebetween and the growth rates were selected.

[3] = system: human ovary cancer cell strain IGROV1; assay: Cell growth inhibition test (MTT), IGROV1; assay type: cell-based; conditions: IGROV-1, 72 h, IGROV1, 3 days culture, read-out: concentration exhibiting anti-cell effect (GI50)
Protocol: as §1, §2, §3, §4

[4] = system: human colon cancer cell strain HT29; assay: Cell growth inhibition test (MTT), HT29; assay type: cell-based; conditions: HT-29, 72 h, HT29, 3 days culture, read-out: concentration exhibiting anti-cell effect (GI50)
Protocol: as §1, §2, §3, §4

Chain of PI3Kα (P42336 whole entry, species assumed): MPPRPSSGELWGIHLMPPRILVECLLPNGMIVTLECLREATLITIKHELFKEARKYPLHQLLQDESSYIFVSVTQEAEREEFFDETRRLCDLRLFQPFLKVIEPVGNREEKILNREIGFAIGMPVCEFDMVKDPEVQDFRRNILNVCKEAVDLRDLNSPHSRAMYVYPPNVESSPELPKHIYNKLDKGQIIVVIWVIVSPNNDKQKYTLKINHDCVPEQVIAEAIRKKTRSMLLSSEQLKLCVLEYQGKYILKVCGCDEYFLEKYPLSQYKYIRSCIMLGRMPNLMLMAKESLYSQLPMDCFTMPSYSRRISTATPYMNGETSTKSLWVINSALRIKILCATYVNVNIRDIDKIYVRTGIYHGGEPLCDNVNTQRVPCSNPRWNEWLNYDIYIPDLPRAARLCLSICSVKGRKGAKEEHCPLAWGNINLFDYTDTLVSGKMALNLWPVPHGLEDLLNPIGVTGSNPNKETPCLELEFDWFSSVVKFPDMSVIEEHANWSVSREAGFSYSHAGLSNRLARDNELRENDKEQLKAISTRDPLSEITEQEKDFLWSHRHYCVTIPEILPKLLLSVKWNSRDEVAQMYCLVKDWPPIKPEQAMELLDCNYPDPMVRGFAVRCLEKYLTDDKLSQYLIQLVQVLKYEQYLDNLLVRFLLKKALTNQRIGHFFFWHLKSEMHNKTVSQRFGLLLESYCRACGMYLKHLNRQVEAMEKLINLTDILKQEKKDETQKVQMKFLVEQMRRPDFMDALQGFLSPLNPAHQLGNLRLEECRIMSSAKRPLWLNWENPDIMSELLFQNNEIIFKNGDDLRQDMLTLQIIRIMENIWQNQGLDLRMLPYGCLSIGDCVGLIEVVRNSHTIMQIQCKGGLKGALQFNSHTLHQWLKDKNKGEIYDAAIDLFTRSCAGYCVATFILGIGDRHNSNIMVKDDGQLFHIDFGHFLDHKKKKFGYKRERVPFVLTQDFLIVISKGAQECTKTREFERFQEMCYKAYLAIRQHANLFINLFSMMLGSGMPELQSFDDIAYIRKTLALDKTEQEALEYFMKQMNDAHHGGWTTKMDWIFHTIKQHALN
Chain of PI3Kα (P27986 whole entry partner, species assumed): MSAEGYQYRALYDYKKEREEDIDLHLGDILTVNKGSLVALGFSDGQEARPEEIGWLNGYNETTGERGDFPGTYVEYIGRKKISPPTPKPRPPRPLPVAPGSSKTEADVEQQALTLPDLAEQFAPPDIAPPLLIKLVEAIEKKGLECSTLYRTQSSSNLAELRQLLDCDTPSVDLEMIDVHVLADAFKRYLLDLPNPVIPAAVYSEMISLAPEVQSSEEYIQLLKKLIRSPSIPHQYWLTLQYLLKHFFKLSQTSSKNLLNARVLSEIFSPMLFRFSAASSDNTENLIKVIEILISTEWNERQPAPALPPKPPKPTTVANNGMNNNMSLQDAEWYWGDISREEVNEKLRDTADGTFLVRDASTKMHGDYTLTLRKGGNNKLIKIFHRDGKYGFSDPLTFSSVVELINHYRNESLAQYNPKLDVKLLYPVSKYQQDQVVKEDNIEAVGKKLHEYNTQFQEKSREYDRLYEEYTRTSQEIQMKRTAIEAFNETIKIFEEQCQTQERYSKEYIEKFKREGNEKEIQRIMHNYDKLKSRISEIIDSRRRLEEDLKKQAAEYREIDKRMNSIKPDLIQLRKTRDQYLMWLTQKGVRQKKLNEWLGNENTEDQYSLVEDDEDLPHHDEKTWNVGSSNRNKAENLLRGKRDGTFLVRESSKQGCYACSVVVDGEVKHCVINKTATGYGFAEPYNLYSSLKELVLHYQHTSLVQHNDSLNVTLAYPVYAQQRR

Row | SMILES | IC50 (PI3Kα) [nM] | IC50 [1] [nM] | GI50 [2] [nM] | GI50 [3] [nM] | GI50 [4] [nM]
1 | C[C@@H]1CN(c2nc3c(N4CCOCC4)nc(-c4cnc(N)nc4)nc3n2CC2CCOC2)C[C@H](C)N1 (stereo partly drawn) [Example 17, 5-[8-(cis-3,5-Dimethylpiperazin-1-yl)-6-morpholin-4-yl-9-(tetrahydrofuran-3-ylmethyl)-9H-purin-2-yl]pyrimidin-2-amine] | 20 to 50 | 100 to 500 | ≤ 5000 | ≤ 5000 | ≤ 5000
2 | CNc1ncc(-c2nc(N3CCOCC3)c3nc(N4C[C@@H](C)N[C@@H](C)C4)n(CC4CCOC4)c3n2)cn1 (stereo partly drawn) [Example 18, 5-[8-(cis-3,5-Dimethylpiperazin-1-yl)-6-morpholin-4-yl-9-(tetrahydrofuran-3-ylmethyl)-9H-purin-2-yl]-N-methylpyrimidin-2-amine] | 50 to 100 | 100 to 500 | ≤ 5000 | ≤ 5000 | ≤ 5000
3 | Nc1ncc(-c2nc(N3CCOCC3)c3nc(N4CCOCC4)n(CC4CCOC4)c3n2)cn1 (centres unmarked) [Example 23, 5-[6,8-Dimorpholin-4-yl-9-(tetrahydrofuran-3-ylmethyl)-9H-purin-2-yl]pyrimidin-2-amine] | 20 to 50 | 30 to 100 | ≤ 5000 | ≤ 5000 | ≤ 5000
4 | CNc1ncc(-c2nc(N3CCOCC3)c3nc(N4CCOCC4)n(CC4CCOC4)c3n2)cn1 (centres unmarked) [Example 24, 5-[6,8-Dimorpholin-4-yl-9-(tetrahydrofuran-3-ylmethyl)-9H-purin-2-yl]-N-methylpyrimidin-2-amine] | 50 to 100 | 100 to 500 | ≤ 5000 | ≤ 5000 | ≤ 5000
5 | CNc1ncc(-c2nc(N3CCOCC3)c3nc(N4CCN(S(C)(=O)=O)CC4)n(CC4CCOC4)c3n2)cn1 (centres unmarked) [Example 25, N-Methyl-5-{8-[4-(methylsulfonyl)piperazin-1-yl]-6-morpholin-4-yl-9-(tetrahydrofuran-3-ylmethyl)-9H-purin-2-yl}pyrimidin-2-amine] | 20 to 50 | 30 to 100 | ≤ 5000 | ≤ 5000 | ≤ 5000
6 | C[C@@H]1CN(c2nc3c(N4CCOCC4)nc(-c4cnc(N)nc4)nc3n2[C@H]2CCN(S(C)(=O)=O)C2)C[C@H](C)N1 [Example 26, 5-{8-(cis-3,5-Dimethylpiperazin-1-yl)-9-[(3S)-1-(methylsulfonyl)pyrrolidin-3-yl]-6-morpholin-4-yl-9H-purin-2-yl}pyrimidin-2-amine] | 20 to 50 | 100 to 500 | ≤ 5000 | ≤ 5000 | ≤ 5000

Next, values leading:

Row | IC50 (PI3Kα) [nM] | IC50 [1] [nM] | GI50 [2] [nM] | GI50 [3] [nM] | GI50 [4] [nM] | SMILES
7 | 10 to 20 | 30 to 100 | ≤ 5000 | ≤ 5000 | ≤ 5000 | Nc1ncc(-c2nc(N3CCOCC3)c3nc(N4CCNCC4)n(CC4CC4)c3n2)cn1 [Example 19, 5-[9-(Cyclopropylmethyl)-6-morpholin-4-yl-8-piperazin-1-yl-9H-purin-2-yl]pyrimidin-2-amine]
8 | 10 to 20 | 30 to 100 | ≤ 5000 | ≤ 5000 | ≤ 5000 | Nc1ncc(-c2nc(N3CCOCC3)c3nc(N4CCOCC4)n(CC4CC4)c3n2)cn1 [Example 20, 5-[9-(Cyclopropylmethyl)-6,8-dimorpholin-4-yl-9H-purin-2-yl]pyrimidin-2-amine]
9 | 10 to 20 | ≥ 500 | ≤ 5000 | ≤ 5000 | ≤ 5000 | Cc1nc(N)ncc1-c1nc(N2CCOCC2)c2nc(NCCN(C)C)n(CC3CC3)c2n1 [Example 21, N′-[2-(2-Amino-4-methylpyrimidin-5-yl)-9-(cyclopropylmethyl)-6-morpholin-4-yl-9H-purin-8-yl]-N,N-dimethylethane-1,2-diamine]
10 | 10 to 20 | ≥ 500 | ≤ 5000 | ≤ 5000 | ≤ 5000 | Cc1nc(N)ncc1-c1nc(N2CCOCC2)c2nc(NCCN3CCOCC3)n(CC3CC3)c2n1 [Example 22, 2-(2-Amino-4-methylpyrimidin-5-yl)-9-(cyclopropylmethyl)-6-morpholin-4-yl-N-(2-morpholin-4-ylethyl)-9H-purin-8-amine]
